EC50 data for three compounds are collected here from patent publication US8088920B2, “3-trifluoromethyl-pyrazine-2-carboxylic acid amide derivatives as HDL-cholesterol raising agents” (Hoffmann-La Roche Inc., priority 2008, dated 2012).

The test deals with THP-1 cells. The experiment in a line: Cholesterol efflux assay. It is filed as cell-based. As to conditions: Homo sapiens; THP-1 cells differentiated to macrophages, [3H]cholesterol loaded, efflux induced by 10 μg/ml Apolipoprotein AI, 6 hrs; percent stimulation over DMSO. As to the method: The ability of compounds of the invention to stimulate cholesterol efflux is determined in replicate cultures of THP-1 cells in 96-well microplates. Cells are plated at an initial density of 150,000 cells/well and differentiated to macrophages with the addition of PMA (100 ng/ml) for 72 hrs in 10% fetal bovine serum, 3 μl/L of b-mercaptoethanol, RPMI-1640 medium. Cells are washed once with RPMI-1640 and loaded with RPMI-1640 medium containing 2% FCS, 50 μg/ml acetylated LDL, and 10 μCi/ml [^3H]cholesterol for 48 hours at 37° C. After loading the cells are washed once with RPMI-1640 and incubated with the compound of interest from DMSO solutions for an additional 24 hrs in RPMI-1640 medium containing 1 mg/ml fatty acid free-bovine serum albumin (BSA). Upon incubation cells are washed once, and cholesterol efflux is induced by the addition of 10 μg/ml Apolipoprotein AI in RPMI-1640 containing 1 mg/ml BSA and in the presence of the compound for an additional 6 hrs. Following incubation radioactivity is determined in the supernatants and cholesterol efflux is expressed as the percent stimulation over replicate cultures treated only with DMSO. Sigmoidal curves were fitted using the XLfit3 program (ID Business Solutions Ltd. UK) and EC50 values were determined.

pEC50: −log10 of the molar value.

A word on the pEC50: it is −log10 of the EC50, conventionally taken in molar units. As to `O=C(N[C@@H]1CCCC[C@H]1O)c1nc(-c2ccc(Cl)cc2)c(OCC2CC2)nc1C(F)(F)F` [Example 1, 6-(4-chloro-phenyl)-5-cyclopropylmethoxy-3-trifluoromethyl-pyrazine-2-carboxylic acid ((1R,2R)-2-hydroxy-cyclohexyl)-amide], the pEC50 is 6.21. For the compound `CC(O)(CNC(=O)c1nc(-c2ccc(Cl)cc2)c(OCC(F)(F)F)nc1C(F)(F)F)C1CC1` (stereo not drawn) [Example 2, 6-(4-chloro-phenyl)-5-(2,2,2-trifluoro-ethoxy)-3-trifluoromethyl-pyrazine-2-carboxylic acid (2-cyclopropyl-2-hydroxy-propyl)-amide], the pEC50 was 6.24. In the case of `CC(O)(CNC(=O)c1nc(-c2ccc(Cl)cc2)c(OCC2CC2)nc1C(F)(F)F)C1CC1` (stereo not drawn) [Example 3, 6-(4-chloro-phenyl)-5-cyclopropylmethoxy-3-trifluoromethyl-pyrazine-2-carboxylic acid (2-cyclopropyl-2-hydroxy-propyl)-amide], the pEC50 was 6.14.
